pIC50: −log10 of the molar value. Read-outs that look alike come from different tables or passages of the source.
Legend:
Chk1 = target: T1, Chk1 (Homo sapiens, UniProt O14757); experiment: biochemical; conditions: ADP-Glo; read-out: Chk1 in vitro enzyme activity (grade)
T1 construct: purchased BPS 40039
T1 sequence (O14757 1-476): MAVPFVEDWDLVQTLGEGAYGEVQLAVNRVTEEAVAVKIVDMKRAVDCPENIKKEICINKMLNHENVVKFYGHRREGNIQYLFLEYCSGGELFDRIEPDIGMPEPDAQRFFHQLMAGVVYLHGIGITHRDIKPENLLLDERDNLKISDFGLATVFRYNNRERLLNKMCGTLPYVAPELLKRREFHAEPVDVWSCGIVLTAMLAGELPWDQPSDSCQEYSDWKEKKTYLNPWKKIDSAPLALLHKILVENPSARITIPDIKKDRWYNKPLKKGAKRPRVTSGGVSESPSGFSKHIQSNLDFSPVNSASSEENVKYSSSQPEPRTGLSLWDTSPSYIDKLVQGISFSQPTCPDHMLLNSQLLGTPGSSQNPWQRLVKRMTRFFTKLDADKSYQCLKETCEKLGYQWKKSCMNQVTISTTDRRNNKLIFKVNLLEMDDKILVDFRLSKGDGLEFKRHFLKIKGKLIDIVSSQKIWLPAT

MDA-MB-231 = experiment: Cancer cell growth inhibition assay (CellTiter-Glo), MDA-MB-231; assay type: cell-based, Human; conditions: Homo sapiens, MDA-MB-231; 72 hours, cellular ATP content; read-out: MDA-MB-231 anti cell proliferation activity (grade)
Description: (§1) Human cancer cell lines were purchased from American Type Culture Collection (Manassas, Va.). The trypsinized cells were diluted to required volume at densities of 44,000 cells/ml. 90 ul cell slurry was dispensed per well in 96-well flat-bottomed plates with the recommended culture medium. The cells were incubated for 24 hours at 37° C. in 5% CO2 under humidified condition. The cells were then incubated with compounds at various concentrations for 72 hours in culture medium supplemented with 0.5% (v/v) FBS. Growth inhibition was assessed by assay of cellular ATP content using CellTiter-Glo reagent to each well. Luminesce was read on Envision. The inhibition rate (%)=(Max signal compound signal)/(Max signal Min signal)×100.

HT-29 = experiment: Cancer cell growth inhibition assay (CellTiter-Glo), HT-29; assay type: cell-based, Human; conditions: Homo sapiens, HT-29; 72 hours, cellular ATP content; read-out: HT-29 anti cell proliferation activity (grade)
Description: as §1

Chk2 = target: T2, Chk2 (Homo sapiens, UniProt O96017); experiment: biochemical; conditions: ADP-Glo; read-out: Chk2 in vitro enzyme activity (grade)
T2 construct: purchased Carna 02-162

[1] = Pharmacokinetics study in rats, intravenous; assay type: in vivo, SD rats; conditions: rat, IV; for AUC(0-inf) / AUC(0-t) / clearance / MRT / half-life / Vd: male, SD, plasma, 10 mg/kg; for AUC(0-inf): read-out: AUC0-inf; for AUC(0-t): read-out: AUC0-t; for clearance: read-out: CL (converted); for MRT: read-out: MRT; for half-life: read-out: t½ (converted); for Vd: iv; for half-life and exposure compared with LY2606368: 10 mg/kg (LY2606368 5 mg/kg)
Description: Compounds were formulated in 30% SEB-β-CD (Zhiyuan Bio-technology) with 1 molar equivalents of HCl (pH adjusted to 3-5). Male SD rats (280-350 g) were purchased from Medical Laboratory Animal Center of Guangdong. Three rats were used for each PK study. […] At various time points after compound administration, approximately 0.2˜0.3 mL of blood was collected by cutting the end of tail into tubes containing K2-EDTA. The plasma was separated via centrifugation and stored at −80° C. A PE Sciex API-3000 LC-MS/MS system (Applied Biosystems, Inc.) was used to analyze compound concentrations in plasma.
PK studies of ChK1 inhibitors were conducted in rats after intravenous administration at 10 mg/kg. […]. […]

[2] = Human liver S9 metabolic stability; assay type: in vitro ADME; conditions: for Percentage Remaining %: 1 μM, 37° C.; for metabolic stability compared with LY2606368: human liver S9; for half-life at 1 μM: human liver S9, 1 μM
Description: Compounds (1 μM) were incubated with human liver S9 (from BD Gentest) at final liver microsomal protein concentration of 0.5 mg/mL for 0, 5, 15, 30, 45 min at 37° C. The remaining compounds in the reaction were measured by LC-MS/MS. The half-life (T½) 0.693/K (K is the rate constant from a plot of ln [concentration] vs. incubation time).

T2 sequence (O96017 whole entry): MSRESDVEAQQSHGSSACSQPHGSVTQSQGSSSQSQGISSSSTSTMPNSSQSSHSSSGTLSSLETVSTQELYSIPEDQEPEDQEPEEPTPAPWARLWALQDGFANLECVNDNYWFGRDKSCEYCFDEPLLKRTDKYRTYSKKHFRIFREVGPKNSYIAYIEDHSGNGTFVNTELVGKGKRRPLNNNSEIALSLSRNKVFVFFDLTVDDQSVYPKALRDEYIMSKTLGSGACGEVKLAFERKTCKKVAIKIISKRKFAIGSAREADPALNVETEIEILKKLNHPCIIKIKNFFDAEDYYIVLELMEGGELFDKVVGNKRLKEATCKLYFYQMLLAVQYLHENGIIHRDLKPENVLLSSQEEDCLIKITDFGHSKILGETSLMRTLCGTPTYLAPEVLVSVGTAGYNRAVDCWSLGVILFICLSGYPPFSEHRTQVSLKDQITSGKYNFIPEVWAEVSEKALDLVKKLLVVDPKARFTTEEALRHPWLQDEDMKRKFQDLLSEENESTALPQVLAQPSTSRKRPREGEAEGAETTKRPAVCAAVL

SMILES	pIC50 (Chk1)	melting point [°C]	pIC50 (MDA-MB-231)	pIC50 (HT-29)	pIC50 (Chk2)	also measured
COc1cc(C)cc(OCC2(CN)CC2)c1-c1cc(Nc2cnc(C#N)cn2)n[nH]1 [Compound 16, 5-(5-(2-((1-(Aminomethyl)cyclopropyl)methoxy)-6-methoxy-4-methylphenyl)-1H-pyrazol-3-ylamino)pyrazine-2-carbonitrile]	≥ 9.00	165 to 170	7.30 to 8.00	≥ 8.00	7.30 to 8.00	
CNCC1(COc2c(F)ccc(OC)c2-c2cc(Nc3cnc(C#N)cn3)n[nH]2)CC1 [Compound 18, 5-(5-(3-fluoro-6-methoxy-2-((1-((methylamino)methyl)cyclopropyl)methoxy)phenyl)-1H-pyrazol-3-ylamino)pyrazine-2-carbonitrile]	8.00 to 9.00	213 to 215				
COc1cc(OC)c(-c2cc(Nc3cnc(C#N)cn3)n[nH]2)c(OCC2(CN)CC2)c1 [Compound 17, 5-(5-(2-((1-(Aminomethyl)cyclopropyl)methoxy)-4,6-dimethoxyphenyl)-1H-pyrazol-3-ylamino)pyrazine-2-carbonitrile]	8.00 to 9.00	160 to 164	7.30 to 8.00	≥ 8.00	7.30 to 8.00	
COc1cc(OC)c(-c2cc(Nc3cnc(C#N)cn3)n[nH]2)c(OCCCN)c1 [Compound 7, 5-(5-(2-(3-Aminopropoxy)-4,6-dimethoxyphenyl)-1H-pyrazol-3-ylamino)pyrazine-2-carbonitrile]	8.00 to 9.00	145 to 151	7.30 to 8.00	7.30 to 8.00	7.30 to 8.00	
COc1cc(Cl)cc(OCC2(CN)CC2)c1-c1cc(Nc2cnc(C#N)cn2)n[nH]1 [Compound 14, 5-(5-(2-((1-(Aminomethyl)cyclopropyl)methoxy)-4-chloro-6-methoxyphenyl)-1H-pyrazol-3-ylamino)pyrazine-2-carbonitrile]	≥ 9.00	232 to 236	7.30 to 8.00	7.30 to 8.00	7.30 to 8.00	AUC(0-inf) [1]: 3120 ng·h/mL; AUC(0-t) [1]: 3100 ng·h/mL; clearance [1]: 56.7 mL/min/kg; MRT [1]: 4.1 h; half-life [1]: 4 h; Vd ([1]; read-out: Vd): 19.2 L/kg; Vd ([1]; read-out: Vss): 13.9 L/kg; half-life and exposure compared with LY2606368 [1]: longer half-life and higher exposure than LY2606368
COc1cc(Br)cc(OCC2(CN)CC2)c1-c1cc(Nc2cnc(C#N)cn2)n[nH]1 [Compound 15, 5-(5-(2-((1-(Aminomethyl)cyclopropyl)methoxy)-4-bromo-6-methoxyphenyl)-1H-pyrazol-3-ylamino)pyrazine-2-carbonitrile]	≥ 9.00		7.30 to 8.00	7.30 to 8.00	7.30 to 8.00	AUC(0-inf) [1]: 4980 ng·h/mL; AUC(0-t) [1]: 4890 ng·h/mL; clearance [1]: 63.3 mL/min/kg; MRT [1]: 3.8 h; half-life [1]: 7.4 h; Vd ([1]; read-out: Vd): 46.9 L/kg; Vd ([1]; read-out: Vss): 19.2 L/kg; half-life and exposure compared with LY2606368 [1]: longer half-life and higher exposure than LY2606368; Percentage Remaining % ([2]; 0 min): 100.00%; Percentage Remaining % ([2]; 5 min): 94.64%; Percentage Remaining % ([2]; 15 min): 93.89%; Percentage Remaining % ([2]; 30 min): 93.30%; Percentage Remaining % ([2]; 45 min): 87.68%; metabolic stability compared with LY2606368 [2]: more metabolic stable than LY2606368; half-life at 1 μM [2]: 7.99 h
COc1cc(F)cc(OCC2(CN)CC2)c1-c1cc(Nc2cnc(C#N)cn2)n[nH]1 [Compound 13, 5-(5-(2-((1-(Aminomethyl)cyclopropyl)methoxy)-4-fluoro-6-methoxyphenyl)-1H-pyrazol-3-ylamino)pyrazine-2-carbonitrile]	≥ 9.00	202 to 206	7.30 to 8.00	≥ 8.00	7.30 to 8.00	Percentage Remaining % ([2]; 0 min): 100.00%; Percentage Remaining % ([2]; 5 min): 98.69%; Percentage Remaining % ([2]; 15 min): 99.08%; Percentage Remaining % ([2]; 30 min): 96.23%; Percentage Remaining % ([2]; 45 min): 100.18%; metabolic stability compared with LY2606368 [2]: more metabolic stable than LY2606368; half-life at 1 μM [2]: 5 h
COc1cc(Br)cc(OCCCN)c1-c1cc(Nc2cnc(C#N)cn2)n[nH]1 [Compound 5, 5-(5-(2-(3-Aminopropoxy)-4-bromo-6-methoxyphenyl)-1H-pyrazol-3-ylamino)pyrazine-2-carbonitrile]	≥ 9.00	165 to 175	7.00 to 7.30	7.30 to 8.00	7.00 to 7.30	AUC(0-inf) [1]: 2990 ng·h/mL; AUC(0-t) [1]: 2960 ng·h/mL; clearance [1]: 60 mL/min/kg; MRT [1]: 2.8 h; half-life [1]: 5.3 h; Vd ([1]; read-out: Vd): 29.5 L/kg; Vd ([1]; read-out: Vss): 10.2 L/kg; half-life and exposure compared with LY2606368 [1]: longer half-life and higher exposure than LY2606368
CNCC1(COc2ccc(F)c(OC)c2-c2cc(Nc3cnc(C#N)cn3)n[nH]2)CC1 [Compound 19, 5-((5-(3-fluoro-2-methoxy-6-((1-((methylamino)methyl)cyclopropyl)methoxy)phenyl)-1H-pyrazol-3-yl)amino)pyrazine-2-carbonitrile]	8.00 to 9.00	215 to 219	6.30 to 7.00	7.00 to 7.30		
CNCC1(COc2cc(F)cc(OC)c2-c2cc(Nc3cnc(C#N)cn3)n[nH]2)CC1 [Compound 20, 5-(5-(4-Fluoro-2-methoxy-6-((1-((methylamino)methyl)cyclopropyl)methoxy)phenyl)-1H-pyrazol-3-ylamino)pyrazine-2-carbonitrile]	≥ 9.00	228 to 230	7.30 to 8.00	≥ 8.00		
COc1cc(C)cc(OCCCN)c1-c1cc(Nc2cnc(C#N)cn2)n[nH]1 [Compound 6, 5-(5-(2-(3-aminopropoxy)-6-methoxy-4-methylphenyl)-1H-pyrazol-3-ylamino)pyrazine-2-carbonitrile]	≥ 9.00	188 to 191	7.30 to 8.00	7.30 to 8.00	7.00 to 7.30	
COc1c(F)ccc(OCCCN)c1-c1cc(Nc2cnc(C#N)cn2)n[nH]1 [Compound 2, 5-((5-(6-(3-aminopropoxy)-3-fluoro-2-methoxyphenyl)-1H-pyrazol-3-yl)amino)pyrazine-2-carbonitrile]	≥ 9.00	80 to 84	6.30 to 7.00	6.30 to 7.00		
COc1ccc(F)c(OCCCN)c1-c1cc(Nc2cnc(C#N)cn2)n[nH]1 [Compound 1, 5-(5-(2-(3-Aminopropoxy)-3-fluoro-6-methoxyphenyl)-1H-pyrazol-3-ylamino)pyrazine-2-carbonitrile]	8.00 to 9.00	221 to 224	6.30 to 7.00	6.30 to 7.00		
CCOC(=O)NCCCOc1cc(F)cc(OC)c1-c1cc(Nc2cnc(C#N)cn2)n[nH]1 [Compound 38, Ethyl 3-(2-(3-(5-cyanopyrazin-2-ylamino)-1H-pyrazol-5-yl)-5-fluoro-3-methoxyphenoxy)propylcarbamate]	7.30 to 8.00					

Reference: patent publication US11116767B2, “3,5-disubstituted pyrazoles useful as checkpoint kinase 1 (Chk1) inhibitors, and their preparations and applications” (PHARMAENGINE, INC., priority 2016, dated 2021)
